The results in this text go back to patent US20250326744A1, “PIPERAZINE DERIVATIVE OR SALT THEREOF, AND PHARMACEUTICAL COMPOSITION” (priority 2022, published 2025).

Each structure is given as a SMILES string. Structures can show the parent of a compound that is named as a salt.

In one test the test system is mexB (PA) strain. As to the kind of experiment: Combinational effect with antibacterial agent against Pseudomonas aeruginosa (Test Examples 2 and 4): mexB (PA) strain with LVFX, TC or AZT at 1/4 MIC, EC99. It is filed as cell-based. The settings on record: for EC99, mexB (PA), AZT / EC99, mexB (PA), LVFX / EC99, mexB (PA), TC: Table 52, Test Example 2, 16 to 20 hours culture, OD595; for EC99, mexB (PA), AZT / EC99, combinational effect with AZT, mexB (PA): combined with AZT at 1/4 MIC; for EC99, mexB (PA), LVFX / EC99, combinational effect with LVFX, mexB (PA): combined with LVFX at 1/4 MIC; for EC99, mexB (PA), TC / EC99, combinational effect with TC, mexB (PA): combined with TC at 1/4 MIC; for EC99, combinational effect with AZT, mexB (PA) / EC99, combinational effect with LVFX, mexB (PA) / EC99, combinational effect with TC, mexB (PA): mexB (PA) strain, Test Example 4. The essentials:
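P. aeruginosa mexB (PA) strain, lacking MexCD-OprJ, MexEF-OprN and MexXY and overexpressing MexAB-OprM, grown 16–20 h in CAMHB (10^4–5 CFU/well) with LVFX, TC or AZT at ¼ MIC plus test compound at 0–800 μM. Growth read as OD595; EC99 is the lowest compound concentration giving ≥99% growth inhibition.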

Another test concerns S-3769 strain. The test is described as follows: Combinational effect with antibacterial agent against Pseudomonas aeruginosa (Test Examples 2 and 4): S-3769 strain with AMK or GM at 1/4 MIC, EC99. The settings on record: for EC99, S-3769 strain, AMK / EC99, S-3769 strain, GM: Table 52, Test Example 2, 16 to 20 hours culture, OD595; for EC99, S-3769 strain, AMK / EC99, combinational effect with AMK, S-3769 strain: combined with AMK at 1/4 MIC; for EC99, S-3769 strain, GM / EC99, combinational effect with GM, S-3769 strain: combined with GM at 1/4 MIC; for EC99, combinational effect with AMK, S-3769 strain / EC99, combinational effect with GM, S-3769 strain: Test Example 4. It is filed as cell-based. The essentials:
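P. aeruginosa S-3769 (clinical isolate, MexY overexpressed) grown 16–20 h in CAMHB, 10^4 to 5 CFU/well, with AMK or GM at ¼ MIC plus test compound 0–800 μM. Growth read as OD595; EC99 is the lowest compound concentration giving ≥99% growth inhibition.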

Turning to `N[C@@H](C(=O)N1CCN(Cc2cccc3c2OCCO3)CC1)C1CCN(CCc2cc(Cl)ccc2-c2ccccc2)CC1` [Example 37, Hydrobromide of (R)-2-amino-2-(1-(2-(4-chloro-[1,1′-biphenyl]-2-yl)ethyl)piperidin-4-yl)-1-(4-((2,3-dihydrobenzo[b] [1,4]dioxin-5-yl)methyl)piperazin-1-yl) ethan-1-one], in the test on mexB (PA) strain, the “EC99, mexB (PA), AZT” value was “B (25 μM<EC99≤100 μM)”; the “EC99, mexB (PA), LVFX” value is recorded as “C (100 μM<EC99)”; the “EC99, mexB (PA), TC” value was “B (25 μM<EC99≤100 μM)”. Further, in the test with S-3769 strain, the “EC99, S-3769 strain, AMK” value was “B (25 μM<EC99≤100 μM)” and the “EC99, S-3769 strain, GM” value was “B (25 μM<EC99≤100 μM)”.

`CCSc1cccc(F)c1CN1CCN(C(=O)[C@H](N)C2CCN(CCc3cc(Cl)ccc3-c3ccccc3)CC2)CC1` [Example 27, (R)-2-amino-2-(1-(2-(4-chloro-[1,1′-biphenyl]-2-yl)ethyl)piperidin-4-yl)-1-(4-(2-(ethylthio)-6-fluorobenzyl)piperazin-1-yl)ethan-1-one]: in the test with mexB (PA) strain, the “EC99, mexB (PA), AZT” value is listed as “A (12.5 μM<EC99≤25 μM)”; the “EC99, mexB (PA), LVFX” value is recorded as “A (12.5 μM<EC99≤25 μM)”; the “EC99, mexB (PA), TC” value is “S (EC99≤12.5 μM)”. In the test on S-3769 strain, the “EC99, S-3769 strain, AMK” value is on record as “S (EC99≤12.5 μM)” and the “EC99, S-3769 strain, GM” value is recorded as “S (EC99≤12.5 μM)”.

`CSc1ccccc1CN1CCN(C(=O)[C@H](N)C2CCN(CCc3cc(Cl)ccc3-c3cccc(F)c3)CC2)CC1` [Example 551, Hydrobromide of (R)-2-amino-2-(1-(2-(4-chloro-3′-fluoro-[1,1-biphenyl]-2-yl)ethyl)piperidin-4-yl)-1-(4-(2-(methylthio)benzyl)piperazin-1-yl)ethan-1-one]: in the test with mexB (PA) strain, the “EC99, combinational effect with AZT, mexB (PA)” value is “S (EC99≤12.5 μM)”; the “EC99, combinational effect with LVFX, mexB (PA)” value is given as “S (EC99≤12.5 μM)”; the “EC99, combinational effect with TC, mexB (PA)” value is listed as “S (EC99≤12.5 μM)”. Besides, in the test with S-3769 strain, the “EC99, combinational effect with AMK, S-3769 strain” value is listed as “B (25 μM<EC99≤100 μM)” and the “EC99, combinational effect with GM, S-3769 strain” value is recorded as “A (12.5 μM<EC99≤25 μM)”.

`CCOc1cccc(F)c1CN1CCN(C(=O)[C@H](N)C2CCN(CCc3cc(Cl)ccc3C3CC3)CC2)CC1` [Example 78, Hydrobromide of (R)-2-amino-2-(1-(5-chloro-2-cyclopropylphenethyl)piperidin-4-yl)-1-(4-(2-ethoxy-6-fluorobenzyl)piperazin-1-yl)ethan-1-one]: in the test on mexB (PA) strain, the “EC99, mexB (PA), AZT” value was “B (25 μM<EC99≤100 μM)”; the “EC99, mexB (PA), LVFX” value is recorded as “C (100 μM<EC99)”; the “EC99, mexB (PA), TC” value is given as “B (25 μM<EC99≤100 μM)”. Further, in the test on S-3769 strain, the “EC99, S-3769 strain, AMK” value is “S (EC99≤12.5 μM)” and the “EC99, S-3769 strain, GM” value was “S (EC99≤12.5 μM)”.

On to `CCOc1cccc(F)c1CN1CCN(C(=O)[C@H](N)C2CCN(CCc3cc(Cl)ccc3C3=CCCCC3)CC2)CC1` [Example 56, Hydrobromide of (R)-2-amino-2-(1-(2-(4-chloro-2′,3′,4′,5′-tetrahydro-[1,1′-biphenyl]-2-yl)ethyl)piperidin-4-yl)-1-(4-(2-ethoxy-6-fluorobenzyl)piperazin-1-yl)ethan-1-one], for which, in the test on mexB (PA) strain, the “EC99, mexB (PA), AZT” value was “B (25 μM<EC99≤100 μM)”; the “EC99, mexB (PA), LVFX” value was “C (100 μM<EC99)”; the “EC99, mexB (PA), TC” value is listed as “B (25 μM<EC99≤100 μM)”. Further, in the test on S-3769 strain, the “EC99, S-3769 strain, AMK” value was “A (12.5 μM<EC99≤25 μM)” and the “EC99, S-3769 strain, GM” value was “A (12.5 μM<EC99≤25 μM)”.

On to `CSc1ccccc1CN1CCN(C(=O)[C@H](N)C2CCN(CCc3cc(Cl)ccc3-c3ccccc3N)CC2)CC1` [Example 556, Hydrobromide of (R)-2-amino-2-(1-(2-(2′-amino-4-chloro-[1,1-biphenyl]-2-yl)ethyl)piperidin-4-yl)-1-(4-(2-(methylthio)benzyl)piperazin-1-yl)ethan-1-one], for which, in the test on mexB (PA) strain, the “EC99, combinational effect with AZT, mexB (PA)” value is “S (EC99≤12.5 μM)”; the “EC99, combinational effect with LVFX, mexB (PA)” value is reported as “S (EC99≤12.5 μM)”; the “EC99, combinational effect with TC, mexB (PA)” value is on record as “S (EC99≤12.5 μM)”. Moreover, in the test with S-3769 strain, the “EC99, combinational effect with AMK, S-3769 strain” value is given as “B (25 μM<EC99≤100 μM)” and the “EC99, combinational effect with GM, S-3769 strain” value was “B (25 μM<EC99≤100 μM)”.
